We go through one compound from patent US5084082A, “Soybean plants with dominant selectable trait for herbicide resistance” (priority 1990, dated 1992).

Assay [1] relates to W20 seedlings. Nature of the assay: Large-scale hydroponic screening pilot with Compound 8. The assay is classed as in vivo, soybean. Conditions: 300 ppb used to irrigate the hydroponic system. An excerpt: The first screening protocol used was identical to the "Large-Scale Hydroponic Screening System" described previously except for the fact that 300 ppb of Compound 8 was used as the selective agent instead of 100 ppb of Compound 1. […] Rare seedlings developing true leaves became very obvious against the background of inhibited seedlings.

Assay [2] deals with ALS of W6-4. As to the kind of experiment: In vitro ALS activity of leaf tissue in the presence of Compounds 8 and 9. The assay is classed as biochemical, soybean. Conditions: W6-4, 100 ppb. The text has this:
(§1) At approximately 1 month after transplantation, some of the selections appeared much healthier than others. For example, W4-4, W4-6, W6-1, W6-2, W6-4, W23-10, and W23-11 recovered very well from the seed soak treatment with Compound 8. These plants were suspected of having a higher level of ALS resistance to Compound 8 than did the parental material from which they were derived. The applicant was also interested to see if any of these selections were cross resistant to an imidazolinone herbicide such as Compound 9. To test this hypothesis, leaf tissue of the one-month-old M2 plants was sampled and assayed in vitro for ALS activity in the presence of Compound 8 and Compound 9. The ALS assay procedure was essentially identical to the previously described ALS assay except that the herbicide concentrations tested were 100 ppb Compound 8 and 10 ppm Compound 9. Williams and mutant W20 soybean plants were also assayed as control genotypes for comparison. Williams contains no genes conferring the ALS-based sulfonylurea resistance while W20 is homozygous for a single mutation conferring ALS-based sulfonylurea resistance.
(§2) Acetolactate synthase (ALS) was extracted from leaves of soybean plants growing vegetatively. The leaves were homogenized in 4 volumes of buffer containing 100 mM hepes (pH 7.5), 1 mM sodium pyruvate, 0.5 mM magnesium chloride, 0.5 mM thiamine pyrophosphate, […], 10% glycerol, 5% PVPP, and 0.2% mercaptoethanol. The homogenate was filtered through cheese cloth and centrifuged at 20,000 g for 20 min. ALS was precipitated from the supernatant with ammonium sulfate. The enzyme was collected between 20 and 60% saturation by centrifugation at 20,000 g for 20 min. The pellet was resuspended in buffer containing 100 mM Hepes, 1 mM sodium pyruvate, and 0.5 mM magnesium chloride, and desalted on PD-10 columns (Pharmacia) equilibrated with the same buffer. ALS assays were carried out in a final volume of 0.5 mL at 30° C. The final reaction mixture contained 100 mM Hepes (pH 7.5), 1 mM magnesium chloride, 60 mM sodium pyruvate, 0.4 mM thiaminepyrophosphate, […], and various concentrations of chlorsulfuron. The assays were initiated with the addition of enzyme ([…]) and terminated with the addition of […] of 6N sulfuric acid. The acidified reaction mixture was heated to 60° C. for 15 min, after which 0.5 mL of 0.5% (W/V) creatine and 0.5 mL of 5% (W/V) napthol (freshly prepared in 2.5 N sodium hydroxide) were added. The reaction mixtures were heated for an additional 15 min at 60° C., and the absorbance was read at 525 nm. Data are expressed in terms of % control (minus Compound 1) activity and are the average of two replications. Fisher's least significant difference (LSD) value (at the 95% level of confidence) was calculated for each Compound 1 concentration to determine the significance of genotype mean differences.

Assay [3] has as its system ALS of W6-1. Described as above. It is filed as biochemical, soybean. Particulars: W6-1, 100 ppb.
Source text: as §1, §2

The subject of assay [4] is ALS of W23-10. The description is as above. Particulars: W23-10, 100 ppb. The assay is classed as biochemical, soybean.
Source text: as §1, §2

In assay [5] the test system is ALS of W6-2. Described as above. It is filed as biochemical, soybean. Conditions: W6-2, 100 ppb.
Source text: as §1, §2

Assay [6] has as its system ALS of W23-11. The assay is described as above. It is filed as biochemical, soybean. Particulars: W23-11, 100 ppb.
Source text: as §1, §2

For assay [7], the system named is ALS of W4-4. Described as above. It is filed as biochemical, soybean. Particulars: W4-4, 100 ppb.
Source text: as §1, §2

Assay [8] deals with ALS of W4-5. The assay is described as above. The assay is classed as biochemical, soybean. Particulars: W4-5, 100 ppb.
Source text: as §1, §2

Assay [9] relates to ALS of Williams. The assay is described as above. Particulars: 100 ppb. It is filed as biochemical, soybean.
Source text: as §1, §2

Assay [10] has as its system ALS of W4-6. The description is as above. It is filed as biochemical, soybean. Particulars: W4-6, 100 ppb.
Source text: as §1, §2

The test system of assay [11] is ALS of W20. Described as above. The assay is classed as biochemical, soybean. Conditions: W20, 100 ppb.
Source text: as §1, §2

For assay [12], the system named is Williams 82. As to the kind of experiment: Postemergence herbicide spray test of W4-4 (Table VII-A). It is filed as in vivo, soybean. Conditions: two weeks after treatment. A digest of the protocol:
(§3)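 Soybean lines grown in 10 cm pots to second-trifoliolate stage, then postemergence herbicide-sprayed, two replicates; controls got carrier only (water with 0.25% X77). Percent injury rated at two weeks; means and SE by per-herbicide ANOVA, line differences tested by Fisher's LSD at 95% confidence.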

Assay [13] concerns mutant W20. The description is as above. It is filed as in vivo, soybean. Conditions: two weeks after treatment. In outline: as §3
Assay [14] has as its system Mutant W4-4. The description is as above. The assay is classed as in vivo, soybean. Particulars: two weeks after treatment. A digest of the protocol: as §3

Take `COC(=O)c1cccnc1S(=O)(=O)NC(=O)Nc1nc(OC)cc(OC)n1` [Compound 8, Methyl 2-[[[[(4,6-dimethoxy-2-pyrimidinyl)amino]carbonyl]amino]sulfonyl]-3-pyridinecarboxylate]: the seedling development result in assay [1] is on record as “would not develop true leaves”. The “uninhibited ALS activity as % of control” value is recorded as 10.5 % of control in assay [2]; 8.5 % of control in [3]; 7.9 % of control in assay [4]; 9.7 % of control in assay [5]; 3.8 % of control in assay [6]; 37.6 % of control in assay [7]. Besides, the “uninhibited ALS activity as % of control” value is given as 7.1 % of control in assay [8], -0.3 % of control in [9], 4.0 % of control in assay [10] and 10.7 % of control in assay [11]. For the same compound, the mean % injury in assay [12] (WM82, 4 g/ha postemergence) came out at 90%; in [12] (WM82, 16 g/ha postemergence), 95%; in assay [12] (WM82, 32 g/ha postemergence), 95%; in assay [13] (W20, 4 g/ha postemergence), 90%; in assay [13] (W20, 16 g/ha postemergence), 93%; in [13] (W20, 32 g/ha postemergence), 95%. The mean % injury in [14] (W4-4, 4 g/ha postemergence) came out at 48%; in [14] (W4-4, 16 g/ha postemergence), 48%; in assay [14] (W4-4, 32 g/ha postemergence), 65%.
